# Measured values from article PMC3526545, “New perspectives for natural antimicrobial peptides: application as antinflammatory drugs in a murine model” (BMC Immunology, 2012).
# Values joined by “and” are separate entries in the source; they are usually repeats but may differ in a detail not shown here. Equal values may be shown once.
# Key:
# J774 cells [1] = assay: Nitrite (NO2-) formation in J774 cells, Griess reaction; format: cell-based, mouse
# [2] = tested on: Staphylococcus epidermidis strains; assay: Antibacterial activity of AMPs (MIC100) and synergism (FIC index); format: cell-based; settings: against Staphylococcus epidermidis strains, single agent
# Procedure: (§1) Antibacterial activity of the peptides used in this work was evaluated as described previously. […] The fractional inhibitory concentration (FIC) index for combinations of two peptides was calculated according to the equation: FIC index = […] = A/MICA + B/MICB , where A and B are the MICs of drug A and drug B in the combination, MICA and MICB are the MICs of drug A and drug B alone, and FICA and FICB are the FICs of drug A and drug B. The FIC indices were interpreted as follows: ≤0.5, synergy; 0.51-4.0, no interaction; > 4.0, antagonism.
# [3] = tested on: Staphylococcus epidermidis strains; assay: % inhibition of bacterial growth by the MIX and its components; format: cell-based; settings: MIX = both
# Procedure: as §1, with “antagonism. The growth inhibition percentages of Staphylococcus epidermidis and probiotic strains were assessed under the same conditions.” for “antagonism.”
# [4] = tested on: Staphylococcus epidermidis strains; assay: Antibiotic susceptibility, disk diffusion method on Mueller-Hinton agar; format: cell-based; settings: all 10 Staphylococcus epidermidis strains
# J774 cells [5] = assay: TNF-α, IFN-γ, IL-10 mRNA expression in J774 cells (real time PCR); format: cell-based, mouse; settings: gentamicin 5 μg/ml, ASA 5 μg/ml or MIX (RJI-C 9 μg/ml + TB-KK 6 μg/ml) for 3 hours; Figure 3B
# [6] = tested on: probiotics bacteria (Lactobacillus plantarum, Lactobacillus Paracasei, Bifidobacterium animalis); assay: Antibacterial activity against probiotics bacteria, overall statement; format: cell-based; settings: MIX RJI-C 9 μg/ml + TB-KK 6 μg/ml; gentamicin 5 μg/ml
# Procedure: The growth inhibition percentages of Staphylococcus epidermidis and probiotic strains were assessed under the same conditions.
# COX-2 = settings: mouse, in vivo
# CD64 = settings: mouse, in vivo
# [7] = tested on: Staphylococcus epidermidis (SE); settings: mouse, in vivo, iv
# [8] = tested on: SAA, haptoglobin, fibrinogen; assay: Acute phase proteins in blood of infected mice; format: in vivo, mouse
# [9] = tested on: Staphylococcus epidermidis (SE); settings: mouse, in vivo, iv; remark: listed apart in the source
compound,measurement,setting,value
"PFKIDIHLGGY-NH2 [RJI-C, analogue of the royal jellein I, chemically modified at the C terminal]","NO2- synthesis in LPS-stimulated J774 cells, in words",J774 cells [1],reduced NO2^- synthesis
same,MIC100,[2]; 10^5 CFU/well,30 µg/mL
same,MIC,[2]; value in brackets,24 µM
same,% inhibition of bacterial growth,"[3]; strain 2/2, RJI-C 9 μg/ml, TB-KK 6 μg/ml",18 ± 1%
same,% inhibition of bacterial growth,"[3]; strain 3/28, RJI-C 9 μg/ml (7.3 μM), TB-KK 6 μg/ml (2.6 μM)",17 ± 2%
same,% inhibition of bacterial growth,"[3]; strain 5/6, RJI-C 9 μg/ml, TB-KK 6 μg/ml",4 ± 3%
same,% inhibition of bacterial growth,"[3]; strain 5/8, RJI-C 9 μg/ml, TB-KK 6 μg/ml",12 ± 2%
same,% inhibition of bacterial growth,"[3]; strain 5/25, RJI-C 9 μg/ml, TB-KK 6 μg/ml",15 ± 1%
same,% inhibition of bacterial growth,"[3]; strain 9/1, RJI-C 9 μg/ml, TB-KK 6 μg/ml",18 ± 0%
same,% inhibition of bacterial growth,"[3]; strain 10/28, RJI-C 9 μg/ml, TB-KK 6 μg/ml",0%
same,% inhibition of bacterial growth,"[3]; strain 12/14, RJI-C 9 μg/ml, TB-KK 6 μg/ml",11 ± 0.5%
same,% inhibition of bacterial growth,"[3]; strain 12/26, RJI-C 9 μg/ml, TB-KK 6 μg/ml",19 ± 2%
"C[C@H]1[C@H](NC(=O)/C(=N\OC(C)(C)C(=O)O)c2csc(N)n2)C(=O)N1S(=O)(=O)O [ATM30, aztreonam]","antibiotic resistance pattern, all strains",[4],resistant
bacitracin [B2],"antibiotic resistance pattern, all strains",[4],resistant
"CC(=O)Oc1ccccc1C(=O)O [ASA, acetylsalicylic acid]","induction of inflammation (TNF-α, IFN-γ, IL-10 mRNA) in J774 cells without LPS",J774 cells [5],do not induce inflammation
"C[C@@H](O)[C@H]1C(=O)N2C(C(=O)O)=C(SCCN=CN)C[C@H]12 [IPM10, imipenem]","antibiotic resistance pattern, all strains",[4],sensitive
"Cc1ncc([N+](=O)[O-])n1CCO [M80, metronidazole]","antibiotic resistance pattern, all strains",[4],resistant
"CNC(C)C1CCC(N)C(OC2C(N)CC(N)C(OC3OCC(C)(O)C(NC)C3O)C2O)O1 (stereo not drawn) [Gentamicin, gentamicin]","antibacterial activity against probiotics bacteria, in words",[6],killed the totality of the probiotics tested
same,COX-2 expression level in kidney,COX-2,COX-2 expression level returned to the normal level nine hours after the treatment
same,MIC,[2]; 10^5 CFU/well,5 µg/mL
same,MIC,[2]; value in brackets,10 µM
same,expression of the CD64 marker in blood,CD64,decreased expression of the CD64 marker
same,"induction of inflammation (TNF-α, IFN-γ, IL-10 mRNA) in J774 cells without LPS",J774 cells [5],do not induce inflammation
same,infection status of kidneys and spleens eleven days after the infection,[7],still infected
same,SAA,"[8]; 3h after treatment, blood of mice infected with Staphylococcus epidermidis, naive 6±0.8, control 17±0.6",20 ± 0.8 mg/dL
same,SAA,"[8]; 6h after treatment, control 19.1±0.5",18.4 ± 1.2 mg/dL
same,Haptoglobin,"[8]; 6h after treatment, control 329±55.2",264 ± 58.3 mg/dL
same,SAA,"[8]; 9h after treatment, control 21.7±0.9",16 ± 0.7 mg/dL
same,Fibrinogen,"[8]; mouse, in vivo",340 ± 41.0 mg/dL and 385 ± 45.2 mg/dL and 364 ± 12.6 mg/dL
same,Haptoglobin,"[8]; mouse, in vivo",244 ± 42.5 mg/dL and 278 ± 42.9 mg/dL
same,"SAA, haptoglobin and fibrinogen, in words","[8]; mouse, in vivo",within normal ranges
same,bacterial load of kidneys and spleens,[9],decreased
"Cc1onc(-c2ccccc2Cl)c1C(=O)N[C@@H]1C(=O)N2[C@@H]1SC(C)(C)[C@@H]2C(=O)O [CX1, cloxacillin]","antibiotic resistance pattern, all strains",[4],resistant
